Patent US20220235051A1, “DI-FLUORO AZEPANES AS HBV CAPSID ASSEMBLY MODULATORS” (priority 2019, published 2022)
Read-outs that look alike come from different tables or passages of the source.

Test system: HBV
Experiment: HBV replication inhibition assay (BDNA assay) in HepG2.2.15 cells
Type: cell-based
Settings: Hepatitis B virus, HepG2.2.15, 144 h, read-out: HepG2.2.15 EC50 HBV DNA
Method: HBV replication inhibition by the disclosed compounds were determined in cells infected or transfected with HBV or cells with stably integrated HBV, such as HepG2.2.15 cells (Sells et al. 1987). In this example, HepG2.2.15 cells were maintained in cell culture medium containing 10% fetal bovine serum (FBS), Geneticin, L-glutamine, penicillin and streptomycin. HepG2.2.15 cells were seeded in 96-well plates at a density of 40,000 cells/well and were treated with serially diluted compounds at a final DMSO concentration of 0.5% either alone or in combination by adding drugs in a checker box format. Cells were incubated with compounds for three days, after which medium was removed and fresh medium containing compounds was added to cells and incubated for another three days. At day 6, supernatant was removed and treated with DNase at 37° C. for 60 minutes, followed by enzyme inactivation at 75° C. for 15 minutes. Encapsidated HBV DNA was released from the virions and covalently linked HBV polymerase by incubating in lysis buffer (Affymetrix QS0010) containing 2.5 μg proteinase K at 50° C. for 40 minutes. HBV DNA was denatured by addition of 0.2 M NaOH and detected using a branched DNA (BDNA) QuantiGene assay kit according to manufacturer recommendation (Affymetrix). HBV DNA levels were also quantified using qPCR, based on amplification of encapsidated HBV DNA extraction with QuickExtraction Solution (Epicentre Biotechnologies) and amplification of HBV DNA using HBV specific PCR probes that can hybridize to HBV DNA and a fluorescently labeled probe for quantitation. In addition, cell viability of HepG2.2.15 cells incubated with test compounds alone or in combination was determined by using CellTitre-Glo reagent according to the manufacturer protocol (Promega). The mean background signal from wells containing only culture medium was subtracted from all other samples, and percent inhibition at each compound concentration was calculated by normalizing to signals from HepG2.2.15 cells treated with 0.5% DMSO using equation E1.
% inhibition=(DMSOave−Xi)/DMSOave×100% E1
where DMSOave is the mean signal calculated from the wells that were treated with DMSO control (0% inhibition control) and Xi is the signal measured from the individual wells. EC50 values, effective concentrations that achieved 50% inhibitory effect, were determined by non-linear fitting using Graphpad Prism software (San Diego, Calif.) and equation E2.
Y=Ymin+(Ymax−Ymin)/(1+10(Log EC50−X)×HillSlope) E2
where Y represents percent inhibition values and X represents the logarithm of compound concentrations.
Selected disclosed compounds were assayed in the HBV replication assay (BDNA assay), as described above, and a representative group of these active compounds is shown in Table 3.

[1] = HepG2.2.15 cells, BDNA assay, encapsidated HBV DNA in supernatant at day 6

SMILES: O=C(Nc1ccc(F)c(C(F)(F)F)c1)N1CCc2nn3c(c2C1)C(F)(F)CC[C@H](O)C3 [Example 4, (S)-11,11-Difluoro-N-(4-fluoro-3-(trifluoromethyl)phenyl)-8-hydroxy-3,4,8,9,10,11-hexahydro-1H-pyrido[4′,3′:3,4]pyrazolo[1,5-a]azepine-2(7H)-carboxamide]
- EC50 [1]: 0.037 µM

SMILES: O=C(Nc1ccc(F)c(Br)c1F)N1CCc2nn3c(c2C1)C(F)(F)CC[C@H](O)C3 [Example 7, (S)-N-(3-Bromo-2,4-difluorophenyl)-11,11-difluoro-8-hydroxy-3,4,8,9,10,11-hexahydro-1H-pyrido[4′,3′:3,4]pyrazolo[1,5-a]azepine-2(7H)-carboxamide]
- EC50 [1]: 0.031 µM

SMILES: O=C(Nc1ccnc(Br)c1F)N1CCc2nn3c(c2C1)C(F)(F)CCC(O)(COCC(F)F)C3 (single isomer, unassigned) [Example 32, (R*)-N-(2-Bromo-3-fluoropyridin-4-yl)-8-((2,2-difluoroethoxy)methyl)-11,11-difluoro-8-hydroxy-3,4,8,9,10,11-hexahydro-1H-pyrido[4′,3′:3,4]pyrazolo[1,5-a]azepine-2(7H)-carboxamide]
- EC50 [1]: 0.138 µM

SMILES: C[C@@H]1Cc2nn3c(c2CN1C(=O)Nc1ccnc(Br)c1F)C(F)(F)CCC(O)(CF)C3 (single isomer, unassigned) [Example 84, (3R,8R*)-N-(2-Bromo-3-fluoropyridin-4-yl)-11,11-difluoro-8-(fluoromethyl)-8-hydroxy-3-methyl-3,4,8,9,10,11-hexahydro-1H-pyrido[4′,3′:3,4]pyrazolo[1,5-a]azepine-2(7H)-carboxamide]
- EC50 [1]: 0.069 µM

SMILES: C[C@@H]1Cc2nn3c(c2CN1C(=O)Nc1ccnc(Br)c1F)C(F)(F)CCC(O)(CC#N)C3 (single isomer, unassigned) [Example 89, (3R,8S*)-N-(2-Bromo-3-fluoropyridin-4-yl)-8-(cyanomethyl)-11,11-difluoro-8-hydroxy-3-methyl-3,4,8,9,10,11-hexahydro-1H-pyrido[4′,3′:3,4]pyrazolo[1,5-a]azepine-2(7H)-carboxamide]
- EC50 [1]: 0.028 µM

SMILES: COC(=O)NCC1CCC(F)(F)c2c3c(nn2C1)CCN(C(=O)Nc1ccnc(Br)c1F)C3 (stereo not shown) [Example 54, Methyl ((2-((2-bromo-3-fluoropyridin-4-yl)carbamoyl)-11,11-difluoro-2,3,4,7,8,9,10,11-octahydro-1H-pyrido[4′,3′:3,4]pyrazolo[1,5-a]azepin-8-yl)methyl)-carbamate]
- EC50 [1]: 0.008 µM

SMILES: C[C@@H]1Cc2nn3c(c2CN1C(=O)Nc1ccc(F)c(C#N)c1)C(F)(F)CC(O)(CF)CC3 (single isomer, unassigned) [Example 128, (3R,9R*)-N-(3-Cyano-4-fluorophenyl)-11,11-difluoro-9-(fluoromethyl)-9-hydroxy-3-methyl-3,4,8,9,10,11-hexahydro-1H-pyrido[4′,3′:3,4]pyrazolo[1,5-a]azepine-2(7H)-carboxamide]
- EC50 [1]: 0.001 µM

SMILES: C[C@@H]1Cc2nn3c(c2CN1C(=O)Nc1ccc(F)c(C#N)c1)C(F)(F)CCC(O)(CF)C3 (single isomer, unassigned) [Example 83, (3R,8R*)-N-(3-Cyano-4-fluorophenyl)-11,11-difluoro-8-(fluoromethyl)-8-hydroxy-3-methyl-3,4,8,9,10,11-hexahydro-1H-pyrido[4′,3′:3,4]pyrazolo[1,5-a]azepine-2(7H)-carboxamide]
- EC50 [1]: 0.01 µM

SMILES: O=C(Nc1ccnc(Br)c1F)N1CCc2nn3c(c2C1)C(F)(F)CC[C@H](O)C3 [Example 5, (S)-N-(2-Bromo-3-fluoropyridin-4-yl)-11,11-difluoro-8-hydroxy-3,4,8,9,10,11-hexahydro-1H-pyrido[4′,3′:3,4]pyrazolo[1,5-a]azepine-2(7H)-carboxamide]
- EC50 [1]: 0.057 µM

SMILES: C[C@@H]1Cc2nn3c(c2CN1C(=O)Nc1ccc(F)c(C(F)(F)F)c1)C(F)(F)CC[C@@H](O)C3 [Example 69, (3R,8R)-11,11-Difluoro-N-(4-fluoro-3-(trifluoromethyl)phenyl)-8-hydroxy-3-methyl-3,4,8,9,10,11-hexahydro-1H-pyrido[4′,3′:3,4]pyrazolo[1,5-a]azepine-2(7H)-carboxamide]
- EC50 [1]: 0.007 µM

SMILES: CC(=O)NCC1CCC(F)(F)c2c3c(nn2C1)CCN(C(=O)Nc1ccc(F)c(C#N)c1)C3 (stereo not shown) [Example 49]
- EC50 [1]: 0.033 µM

SMILES: N#Cc1c(F)ccc(NC(=O)N2CCc3nn4c(c3C2)C(F)(F)CC[C@H](O)C4)c1F [Example 6, (S)-N-(3-Cyano-2,4-difluorophenyl)-11,11-difluoro-8-hydroxy-3,4,8,9,10,11-hexahydro-1H-pyrido[4′,3′:3,4]pyrazolo[1,5-a]azepine-2(7H)-carboxamide]
- EC50 [1]: 0.044 µM

SMILES: O=C(Nc1ccnc(Br)c1F)N1CCc2nn3c(c2C1)C(F)(F)CC[C@@H](O)C3 [Example 10, (R)-N-(2-Bromo-3-fluoropyridin-4-yl)-11,11-difluoro-8-hydroxy-3,4,8,9,10,11-hexahydro-1H-pyrido[4′,3′:3,4]pyrazolo[1,5-a]azepine-2(7H)-carboxamide]
- EC50 [1]: 0.032 µM

SMILES: N#Cc1c(F)ccc(NC(=O)N2CCc3nn4c(c3C2)C(F)(F)CC[C@@H](O)C4)c1F [Example 11, (R)-N-(3-Cyano-2,4-difluorophenyl)-11,11-difluoro-8-hydroxy-3,4,8,9,10,11-hexahydro-1H-pyrido[4′,3′:3,4]pyrazolo[1,5-a]azepine-2(7H)-carboxamide]
- EC50 [1]: 0.024 µM

SMILES: CC(=O)NCC1CCC(F)(F)c2c3c(nn2C1)CCN(C(=O)Nc1ccnc(Br)c1F)C3 (stereo not shown) [Example 50, 8-(Acetamidomethyl)-N-(2-bromo-3-fluoropyridin-4-yl)-11,11-difluoro-3,4,8,9,10,11-hexahydro-1H-pyrido[4′,3′:3,4]pyrazolo[1,5-a]azepine-2(7H)-carboxamide]
- EC50 [1]: 0.11 µM

SMILES: N#Cc1cc(NC(=O)N2CCc3nn4c(c3C2)C(F)(F)CC[C@H](O)C4)ccc1F [Example 3, (S)-N-(3-Cyano-4-fluorophenyl)-11,11-difluoro-8-hydroxy-3,4,8,9,10,11-hexahydro-1H-pyrido[4′,3′:3,4]pyrazolo[1,5-a]azepine-2(7H)-carboxamide]
- EC50 [1]: 0.022 µM

SMILES: C[C@@H]1Cc2nn3c(c2CN1C(=O)Nc1ccc(F)c(C(F)(F)F)c1)C(F)(F)CC[C@H](O)C3 [Example 73, (3R,8S)-11,11-Difluoro-N-(4-fluoro-3-(trifluoromethyl)phenyl)-8-hydroxy-3-methyl-3,4,8,9,10,11-hexahydro-1H-pyrido[4′,3′:3,4]pyrazolo[1,5-a]azepine-2(7H)-carboxamide]
- EC50 [1]: 0.002 µM

SMILES: O=C(Nc1ccnc(Br)c1F)N1CCc2nn3c(c2C1)C(F)(F)CC(CO)CC3 (single isomer, unassigned) [Example 135, (R*)-N-(2-Bromo-3-fluoropyridin-4-yl)-11,11-difluoro-9-(hydroxymethyl)-3,4,8,9,10,11-hexahydro-1H-pyrido[4′,3′:3,4]pyrazolo[1,5-a]azepine-2(7H)-carboxamide]
- EC50 [1]: 0.019 µM

SMILES: O=C(Nc1ccc(F)c(Br)c1F)N1CCc2nn3c(c2C1)C(F)(F)CC[C@@H](O)C3 [Example 12, (R)-N-(3-Bromo-2,4-difluorophenyl)-11,11-difluoro-8-hydroxy-3,4,8,9,10,11-hexahydro-1H-pyrido[4′,3′:3,4]pyrazolo[1,5-a]azepine-2(7H)-carboxamide]
- EC50 [1]: 0.019 µM

SMILES: O=C(Nc1ccnc(Br)c1F)N1CCc2nn3c(c2C1)C(F)(F)CCC(CNC(=O)C(F)(F)F)C3 (stereo not shown) [Example 52, N-(2-Bromo-3-fluoropyridin-4-yl)-11,11-difluoro-8-((2,2,2-trifluoroacetamido)methyl)-3,4,8,9,10,11-hexahydro-1H-pyrido[4′,3′:3,4]pyrazolo[1,5-a]azepine-2(7H)-carboxamide]
- EC50: 0.102 µM

SMILES: C#CC1(O)CCC(F)(F)c2c3c(nn2C1)CCN(C(=O)Nc1ccc(F)c(C#N)c1)C3 (stereo not shown) [Example 58, N-(3-Cyano-4-fluorophenyl)-8-ethynyl-11,11-di fluoro-8-hydroxy-3,4,8,9,10,11-hexahydro-1H-pyrido[4′,3′:3,4]pyrazolo[1,5-a]azepine-2(7H)-carboxamide]
- EC50 [1]: 0.037 µM

SMILES: C#CC1(O)CCC(F)(F)c2c3c(nn2C1)C[C@@H](C)N(C(=O)Nc1ccnc(C(F)F)c1F)C3 (single isomer, unassigned) [Example 97, (3R,8R*)-N-(2-(Difluoromethyl)-3-fluoropyridin-4-yl)-8-ethynyl-11,11-difluoro-8-hydroxy-3-methyl-3,4,8,9,10,11-hexahydro-1H-pyrido[4′,3′:3,4]pyrazolo[1,5-a]azepine-2(7H)-carboxamide]
- EC50 [1]: 0.035 µM
